Results from article PMC8379015, “Resistance of Mycobacterium tuberculosis to indole 4-carboxamides occurs through alterations in drug metabolism and tryptophan biosynthesis” (Cell Chemical Biology, 2021).
Converted amounts (≈) assume the structure as drawn.

How the values were obtained:
[1] = test system: M. tuberculosis H37Rv mutant 5I (amiC + g in aa352); assay type: cell-based, Mycobacterium tuberculosis
[2] = test system: M. tuberculosis H37Rv mutant 5L (trpE H170R); assay type: cell-based, Mycobacterium tuberculosis
[3] = test system: M. tuberculosis H37Rv mutant 5M (trpB D261G); assay type: cell-based, Mycobacterium tuberculosis
[4] = test system: M. tuberculosis H37Rv mutant 5G (amiC S157F); assay type: cell-based, Mycobacterium tuberculosis
[5] = test system: M. tuberculosis H37Rv mutant 5K (trpB A134V); assay type: cell-based, Mycobacterium tuberculosis
[6] = test system: M. tuberculosis H37Rv mutant 5H (amiC + g in aa352); assay type: cell-based, Mycobacterium tuberculosis
[7] = test system: M. tuberculosis H37Rv mutant 5A (amiC K195∗); assay type: cell-based, Mycobacterium tuberculosis
[8] = test system: M. tuberculosis H37Rv mutant 5B (amiC W238∗); assay type: cell-based, Mycobacterium tuberculosis
[9] = test system: M. tuberculosis H37Rv mutant 5N (trpA D54G); assay type: cell-based, Mycobacterium tuberculosis
[10] = test system: M. tuberculosis H37Rv mutant 5O (trpB D261G); assay type: cell-based, Mycobacterium tuberculosis
[11] = test system: C1-resistant mutants of M. tuberculosis; assay type: cell-based, Mycobacterium tuberculosis
[12] = test system: M. tuberculosis H37Rv recombineered trpB / trpE mutant strains; assay type: cell-based, Mycobacterium tuberculosis
C5R mutants of Mtb = assay type: cell-based, Mycobacterium tuberculosis
[13] = test system: M. tuberculosis H37Rv mutant 5J (trpB A168V); assay type: cell-based, Mycobacterium tuberculosis
TrpE H170R = TrpE H170R (Mycobacterium tuberculosis, UniProt P9WFX3, H170R); assay type: biochemical
[14] = test system: M. tuberculosis H37Rv overexpressing AmiC (rv2888c, Psmyc); assay type: cell-based, Mycobacterium tuberculosis

Molecule | MIC [1] [µM] | MIC [2] [µM] | MIC [3] [µM] | MIC [4] [µM] | MIC [5] [µM] | MIC [6] [µM] | MIC [7] [µM] | MIC [8] [µM] | MIC [9] [µM] | MIC [10] [µM] | resistance of recombineered strains [12] | MIC [13] [µM] | cross-resistance of C1-resistant mutants [11] | other results
Nc1cccc2[nH]ccc12 [4-AI, 4-aminoindole, reference compound] | 4.68 (≈ 0.619 µg/mL) | 100 (≈ 13.2 µg/mL) | 100 (≈ 13.2 µg/mL) | 4.68 (≈ 0.619 µg/mL) | 100 (≈ 13.2 µg/mL) | 4.68 (≈ 0.619 µg/mL) | 4.68 (≈ 0.619 µg/mL) | 4.68 (≈ 0.619 µg/mL) | 100 (≈ 13.2 µg/mL) | 100 (≈ 13.2 µg/mL) | resistant | 100 (≈ 13.2 µg/mL) |  | shift in MIC [2]: approximately 4 fold; cross-resistance of amiC mutants [11]: not cross-resistant; resistance of trpABE mutants [11]: highly resistant; cross-resistance of C5R mutants (C5R mutants of Mtb): no cross-resistance
O=C(COc1ccccc1)Nc1cccc2[nH]ccc12 [C2, N-(1H-indol-4-yl)-2-phenoxyacetamide] | 75 (≈ 20 µg/mL) | 25 (≈ 6.66 µg/mL) | 25 (≈ 6.66 µg/mL) | 75 (≈ 20 µg/mL) | 25 (≈ 6.66 µg/mL) | 75 (≈ 20 µg/mL) | 75 (≈ 20 µg/mL) | 75 (≈ 20 µg/mL) | 25 (≈ 6.66 µg/mL) | 25 (≈ 6.66 µg/mL) | resistant | 25 (≈ 6.66 µg/mL) | cross-resistant | 
O=C(Nc1cccc2[nH]ccc12)C1CCCCC1 [C3, N-(1H-indol-4-yl)cyclohexanecarboxamide] | >100 | >100 | >100 | >100 | >100 | >100 | >100 | >100 | >100 | >100 |  | >100 | cross-resistant | 
O=C(Nc1cccc2[nH]ccc12)c1ccc(OCC(F)(F)F)cn1 [C4, N-(1H-indol-4-yl)-5-(2,2,2-trifluoroethoxy)picolinamide] | 75 (≈ 25.1 µg/mL) | 25 (≈ 8.38 µg/mL) | 25 (≈ 8.38 µg/mL) | 75 (≈ 25.1 µg/mL) | 25 (≈ 8.38 µg/mL) | 75 (≈ 25.1 µg/mL) | 75 (≈ 25.1 µg/mL) | 75 (≈ 25.1 µg/mL) | 25 (≈ 8.38 µg/mL) | 25 (≈ 8.38 µg/mL) |  | 25 (≈ 8.38 µg/mL) | cross-resistant | 
CNS(=O)(=O)c1ccc2c(c1)CCN2C(=O)c1ccc(C)s1 [C5, reference compound] | 0.39 (≈ 0.131 µg/mL) | 0.39 (≈ 0.131 µg/mL) | 0.098 (≈ 0.033 µg/mL) | 0.39 (≈ 0.131 µg/mL) | 0.39 (≈ 0.131 µg/mL) | 0.39 (≈ 0.131 µg/mL) | 0.39 (≈ 0.131 µg/mL) | 0.39 (≈ 0.131 µg/mL) | 0.19 (≈ 0.0639 µg/mL) | 0.19 (≈ 0.0639 µg/mL) |  | 0.39 (≈ 0.131 µg/mL) |  | cross-resistance of mutants raised against C1 [11]: None of the resistant mutants raised against C1 were cross-resistant; susceptibility of one C1R mutant relative to WT [11]: more susceptible
NNC(=O)c1ccncc1 [INH, isoniazid, reference compound] | 0.12 (≈ 0.0165 µg/mL) | 0.12 (≈ 0.0165 µg/mL) | 0.12 (≈ 0.0165 µg/mL) | 0.12 (≈ 0.0165 µg/mL) | 0.12 (≈ 0.0165 µg/mL) | 0.12 (≈ 0.0165 µg/mL) | 0.12 (≈ 0.0165 µg/mL) | 0.12 (≈ 0.0165 µg/mL) | 0.12 (≈ 0.0165 µg/mL) | 0.12 (≈ 0.0165 µg/mL) | not | 0.12 (≈ 0.0165 µg/mL) |  | 
N[C@@H](Cc1c[nH]c2ccccc12)C(=O)O [L-Trp, L-tryptophan] |  |  |  |  |  |  |  |  |  |  |  |  |  | loss of sensitivity to allosteric inhibition, H170R vs WT (TrpE H170R): 250 times
N-(1H-indol-4-yl)-6-(2,2,2-trifluoroethoxy)nicotinamide [C1] | >100 | 6.25 | 6.25 | >100 | 6.25 | >100 | >100 | >100 | 6.25 | 6.25 | resistant | 6.25 |  | change in MIC on overexpression of AmiC [14]: did not result in a noticeable change in MIC; cross-resistance of C5R mutants (C5R mutants of Mtb): no cross-resistance
